Measurements reported in patent US20080312301A1, “Substituted N-Benzo[D]Isoxazol-3-Yl-Amine Compounds as Inhibitors of Mglur5, Serotonin (5-Ht) and Noradrenaline Receptors, and Uses Thereof” (Gruenenthal GmbH, priority 2005, published 2008).

Columns and labels:
NA transporter = target: T1, NA transporter (Rattus norvegicus, UniProt Q63380); test: Noradrenaline (NA) uptake inhibition in rat brain synaptosomes (hypothalamus), [3H]-NA; assay type: biochemical; conditions: for inhibition at 10 µM: conc. 10 μM
T1 construct: from tissue; host or cells: rat hypothalamus synaptosomes (P2 fraction)
T1 sequence (Q63380 1-617): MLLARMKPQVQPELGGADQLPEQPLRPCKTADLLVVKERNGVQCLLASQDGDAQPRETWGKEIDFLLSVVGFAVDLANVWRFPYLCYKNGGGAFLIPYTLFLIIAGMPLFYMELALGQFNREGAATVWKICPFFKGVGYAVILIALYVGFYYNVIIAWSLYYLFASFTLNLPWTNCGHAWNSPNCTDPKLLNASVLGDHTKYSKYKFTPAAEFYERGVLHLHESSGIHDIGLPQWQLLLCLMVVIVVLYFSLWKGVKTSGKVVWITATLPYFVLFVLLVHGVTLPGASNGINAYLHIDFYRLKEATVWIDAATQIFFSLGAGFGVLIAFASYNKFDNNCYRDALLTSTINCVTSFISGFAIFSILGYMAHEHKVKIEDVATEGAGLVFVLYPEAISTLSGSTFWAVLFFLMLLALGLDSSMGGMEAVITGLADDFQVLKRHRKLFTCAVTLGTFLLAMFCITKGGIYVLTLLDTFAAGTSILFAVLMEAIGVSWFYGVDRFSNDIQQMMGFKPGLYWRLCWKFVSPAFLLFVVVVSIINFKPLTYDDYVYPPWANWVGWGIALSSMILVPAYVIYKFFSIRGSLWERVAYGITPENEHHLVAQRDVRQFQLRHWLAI
Description: I. Method for Determining the Noradrenaline and 5HT Uptake Inhibition:
For in vitro studies, synaptosomes were freshly isolated from rat brain areas as described in the publication “The isolation of nerve endings from brain” by E. G. Gray and V. P. Whittaker, J. Anatomy 96, pages 79-88, 1962. The corresponding literature description is introduced hereby as reference and forms part of the disclosure.
The tissue (hypothalamus for determining the noradrenaline uptake inhibition and medulla and pons for determining the 5HT uptake inhibition) was homogenized in ice-cold 0.32 M sucrose (100 mg of tissue/1 ml) in a glass homogenizer with Teflon pestle using five full up and down strokes at 840 revolutions/minute. The homogenate was centrifuged at 1000 g and at 4° C. for 10 minutes. After subsequent centrifugation at 17 000 g for 55 minutes, the synaptosomes (P2 fraction) are obtained and were resuspended in 0.32 M […] (0.5 ml/100 mg of the original weight).
The respective uptake was measured in a 96-well microtiter plate. The volume was 250 μl and incubation took place at room temperature (approx. 20-25° C.) under an O2 atmosphere.
The incubation time was 7.5 minutes for [^3H]-NA and 5 minutes for [^3H]-5-HT. The 96 samples were then filtered through a Unifilter GF/B® microtiter plate (Packard) and washed with […] of incubated buffer using a “Brabdel MPXRI-96T Cell Harvester”. The Unifilter GF/B plate was dried at 55° C. for 1 h. The plate was then sealed with a Back Seal® (Packard) and 35 μl of scintillation fluid were added per well (Ultima Gold®, Packard). After sealing with a top Seal® (Packard), the radioactivity was determined, after equilibrium had been reached (about 5 h), in a “Trilux 1450 Microbeta” (Wallac).
The following characteristic data were found for the NA transporter:
The amount of protein employed in the above determination corresponded to the value disclosed in the literature, as described for example in “Protein measurement with the folin phenol reagent”, Lowry et al., J. Biol. Chem., 193, 265-275, 1951. A detailed description of the method can also be found in the literature, for example from M. Ch. Frink, H.-H. Hennies, W. Engelberger, M. Haurand and B. Wilffert (1996) Arzneim.-Forsch./Drug Res. 46 (III), 11, 1029-1036. The corresponding literature descriptions are hereby introduced as reference and form part of the disclosure.

mGluR5 receptor = target: T2, mGluR5 receptor (Sus scrofa, UniProt I3LUI7); test: Affinity for the mGluR5 receptor: displacement of 3[H]-MPEP binding in pig brain homogenate; conditions: 10 μM compound, 5 nM 3[H]-MPEP
T2 construct: 450 μg of protein from brain homogenate are incubated with 5 nM^3[H]-MPEP; from tissue; host or cells: pig brain hemispheres without medulla, cerebellum and pons
T2 sequence (I3LUI7 19-1212): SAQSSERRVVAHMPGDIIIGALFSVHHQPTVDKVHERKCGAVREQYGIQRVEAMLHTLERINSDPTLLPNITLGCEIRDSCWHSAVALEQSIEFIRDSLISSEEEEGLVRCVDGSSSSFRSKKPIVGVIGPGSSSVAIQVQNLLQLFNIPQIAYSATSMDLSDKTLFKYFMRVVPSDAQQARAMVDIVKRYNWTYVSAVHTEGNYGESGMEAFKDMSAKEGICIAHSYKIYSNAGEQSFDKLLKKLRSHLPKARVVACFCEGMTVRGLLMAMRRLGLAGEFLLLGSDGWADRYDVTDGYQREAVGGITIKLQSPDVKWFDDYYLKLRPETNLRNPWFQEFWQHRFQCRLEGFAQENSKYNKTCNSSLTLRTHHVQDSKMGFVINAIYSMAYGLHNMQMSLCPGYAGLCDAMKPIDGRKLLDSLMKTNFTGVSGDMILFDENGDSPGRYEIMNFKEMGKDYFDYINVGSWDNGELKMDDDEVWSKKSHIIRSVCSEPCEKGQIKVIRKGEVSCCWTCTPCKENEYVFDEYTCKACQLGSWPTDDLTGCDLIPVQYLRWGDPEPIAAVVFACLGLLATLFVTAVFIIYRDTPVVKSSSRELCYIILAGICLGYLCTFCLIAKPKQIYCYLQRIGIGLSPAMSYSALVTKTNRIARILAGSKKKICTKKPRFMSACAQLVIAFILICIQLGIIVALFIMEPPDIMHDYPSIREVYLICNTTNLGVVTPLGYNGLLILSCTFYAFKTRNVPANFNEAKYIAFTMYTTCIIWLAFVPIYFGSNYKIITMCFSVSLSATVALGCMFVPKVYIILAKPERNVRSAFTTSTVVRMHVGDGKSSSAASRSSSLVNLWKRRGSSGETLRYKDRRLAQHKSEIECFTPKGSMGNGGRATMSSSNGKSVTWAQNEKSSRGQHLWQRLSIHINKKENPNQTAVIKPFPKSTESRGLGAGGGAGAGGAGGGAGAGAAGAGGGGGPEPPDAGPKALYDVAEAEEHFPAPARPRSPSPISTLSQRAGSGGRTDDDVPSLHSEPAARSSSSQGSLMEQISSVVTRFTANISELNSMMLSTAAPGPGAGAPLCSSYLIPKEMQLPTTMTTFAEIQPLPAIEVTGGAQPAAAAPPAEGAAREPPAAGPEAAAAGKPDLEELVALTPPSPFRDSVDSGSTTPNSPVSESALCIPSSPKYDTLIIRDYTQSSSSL
Procedure: II. Method for Determining the Affinity for the mGluR5 Receptor
In each case 450 μg of protein from brain homogenate are incubated with 5 nM^3[H]-MPEP (Tocris, order No. R1212) (MPEP=2-methyl-6-[…]) and the compounds to be investigated (10 μM in the assay) in buffer (as above) in 250 μl incubation mixtures in 96-well microtiter plates at room temperature for 60 min.
The filter plates were then dried at 55° C. for 60 min.

SMILES | inhibition at 10 µM (mGluR5 receptor) | also measured
COc1cccc2onc(NC(=O)C(c3ccccc3)c3ccccc3)c12 [Example 7, N-(4-methoxybenzo[d]isoxazol-3-yl)-2,2-diphenylacetamide] |  | inhibition at 10 µM (NA transporter): 63%
O=C(Nc1noc2ccc(Br)cc12)C1CC1 [Example 8, cyclopropane(5-bromobenzo[d]isoxazol-3-yl)carboxamide] |  | NA uptake inhibition [%] conc. 10 μM (NA transporter): 62%
O=C(Nc1noc2cc(F)ccc12)c1cc(Cl)cc(Cl)c1 [Example 9, 3,5-dichloro-N-(6-fluorobenzo[d]isoxazol-3-yl)benzamide] |  | inhibition at 10 µM (NA transporter): 67%
Nc1cccc2onc(NC(=O)c3ccc([N+](=O)[O-])cc3)c12 [Example 10, N-(4-aminobenzo[d]isoxazol-3-yl)-4-nitrobenzamide] |  | inhibition at 10 µM (NA transporter): 66%
Cc1ccc(C(=O)Nc2noc3ccc(Br)cc23)cc1 [Example 138, N-(5-bromobenzo[d]isoxazol-3-yl)-4-methylbenzamide] | 32% | 
COc1cccc(OC)c1C(=O)Nc1noc2ccc(Br)cc12 [Example 139, N-(5-bromobenzo[d]isoxazol-3-yl)-2,6-dimethoxybenzamide] | 41.5% | 
O=C(Nc1noc2ccc(Br)cc12)c1ccccc1Br [Example 140, 2-bromo-N-(5-bromobenzo[d]isoxazol-3-yl)benzamide] | 38.4% | 
O=C(Nc1noc2ccc(Br)cc12)c1cc(F)ccc1C(F)(F)F [Example 141, N-(5-bromobenzo[d]isoxazol-3-yl)-5-fluoro-2-trifluoromethylbenzamide] | 33.1% | 
COc1cccc(C(=O)Nc2noc3ccc(Br)cc23)c1 [Example 142, N-(5-bromobenzo[d]isoxazol-3-yl)-3-methoxybenzamide] | 37.8% | 
Cc1cccc(C(=O)Nc2noc3ccc(C)cc23)c1 [Example 143, 3-methyl-N-(5-methylbenzo[d]isoxazol-3-yl)benzamide] |  | mGluR5 receptor inhibition of the 3[H]-MPEP binding in % (10 μM) (mGluR5 receptor): 44.66%
Cc1ccc2onc(NC(=O)c3ccc(C#N)cc3)c2c1 [Example 144, 4-cyano-N-(5-methylbenzo[d]isoxazol-3-yl)benzamide] | 48.8% | 
CCC(C(=O)Nc1noc2ccc(C)cc12)c1ccccc1 (stereo not shown) [Example 145, N-(5-methylbenzo[d]isoxazol-3-yl)-2-phenylbutyramide] | 43.5% | 
CCCC(C)C(=O)Nc1noc2ccc(C)cc12 (stereo not shown) [Example 146, N-(5-methylbenzo[d]isoxazol-3-yl)-2-methylpentanamide] | 34% | 
O=C(Nc1noc2cccc(F)c12)c1ccccc1 [Example 147, N-(4-fluorobenzo[d]isoxazol-3-yl)benzamide] | 31.4% | 
O=C(Nc1noc2cccc(F)c12)c1ccc(Cl)cc1 [Example 148, 4-chloro-N-(4-fluorobenzo[d]isoxazol-3-yl)benzamide] | 79.5% | 
O=C(Nc1noc2cccc(F)c12)c1ccccc1F [Example 149, 2-fluoro-N-(4-fluorobenzo[d]isoxazol-3-yl)benzamide] | 32.5% | 
O=C(Nc1noc2cccc(F)c12)C12CC3CC(CC(C3)C1)C2 [Example 150, adamantane-1-(4-fluorobenzo[d]isoxazol-3-yl)carboxamide] |  | mGluR5 receptor inhibition of the 3[H]-MPEP binding in % (10 μM) (mGluR5 receptor): 53.18%
O=C(Nc1noc2cccc(Cl)c12)C12CC3CC(CC(C3)C1)C2 [Example 151, adamantane-1-(4-chlorobenzo[d]isoxazol-3-yl)carboxamide] |  | mGluR5 receptor inhibition of the 3[H]-MPEP binding in % (10 μM) (mGluR5 receptor): 74.05%
O=C(Nc1noc2cccc(Cl)c12)c1ccccc1 [Example 152, N-(4-chlorobenzo[d]isoxazol-3-yl)benzamide] | 31.6% | 
Cc1cccc(C(=O)Nc2noc3cccc(Cl)c23)c1 [Example 153, N-(4-chlorobenzo[d]isoxazol-3-yl)-3-methylbenzamide] | 63.8% | 

SMILES | inhibition at 10 µM (mGluR5 receptor) | also measured
CCC(C)C(=O)Nc1noc2cccc(Cl)c12 (stereo not shown) [Example 154, N-(4-chlorobenzo[d]isoxazol-3-yl)-2-methylbutyramide] | 30% | 
CC(C)(C)CC(=O)Nc1noc2cccc(Cl)c12 [Example 155, N-(4-chlorobenzo[d]isoxazol-3-yl)-3,3-dimethylbutyramide] | 52.4% | 
COc1cccc2onc(NC(=O)c3ccccc3C)c12 [Example 156, N-(4-methoxybenzo[d]isoxazol-3-yl)-2-methylbenzamide] | 33.8% | 
COc1cccc2onc(NC(=O)c3ccccc3Cl)c12 [Example 157, 2-chloro-N-(4-methoxybenzo[d]isoxazol-3-yl)benzamide] | 32.4% | 
COc1cccc2onc(NC(=O)c3ccccc3C(F)(F)F)c12 [Example 158, N-(4-methoxybenzo[d]isoxazol-3-yl)-2-trifluoromethylbenzamide] | 36.1% | 
CCCCC(CC)C(=O)Nc1noc2cccc(OC)c12 (stereo not shown) [Example 159, N-(4-methoxybenzo[d]isoxazol-3-yl)-2-ethylhexanamide] | 43.2% | 
CCC(C)C(=O)Nc1noc2cccc(OC)c12 (stereo not shown) [Example 160, N-(4-methoxybenzo[d]isoxazol-3-yl)-2-methylbutyramide] | 54% | 
CCCC(C)C(=O)Nc1noc2cccc(OC)c12 (stereo not shown) [Example 161, N-(4-methoxybenzo[d]isoxazol-3-yl)-2-methylpentanamide] | 38.5% | 
CCC(C)C(=O)Nc1noc2cccc(OCC(F)(F)F)c12 (stereo not shown) [Example 163, 2-methyl-N-[4-(2,2,2-trifluoroethoxy)benzo[d]isoxazol-3-yl]butyramide] | 36% | 
CC(C)(C)CC(=O)Nc1noc2cccc(OCC(F)(F)F)c12 [Example 164, 3,3-dimethyl-N-[4-(2,2,2-trifluoroethoxy)benzo[d]isoxazol-3-yl]butyramide] | 33.4% | 
Cc1cc(C(=O)Nc2noc3cccc(OCC(F)(F)F)c23)c(C)o1 [Example 166, 2,5-dimethylfuran-3-[4-(2,2,2-trifluoroethoxy)benzo[d]isoxazol-3-yl]carboxamide] |  | mGluR5 receptor inhibition of the 3[H]-MPEP binding in % (10 μM) (mGluR5 receptor): 32.39%
Cc1ccc(COc2cccc3onc(NC(=O)c4cccc([N+](=O)[O-])c4)c23)cc1 [Example 167, N-[4-(4-methylbenzyloxy)benzo[d]isoxazol-3-yl]-3-nitrobenzamide] | 39.7% | 
CCCc1ccc(C(=O)Nc2noc3cccc(OCc4ccc(C)cc4)c23)cc1 [Example 168, N-[4-(4-methylbenzyloxy)benzo[d]isoxazol-3-yl]-4-propylbenzamide] | 32.2% | 
CN(C)c1cccc2onc(NC(=O)c3cc(F)cc(C(F)(F)F)c3)c12 [Example 169, N-(4-dimethylaminobenzo[d]isoxazol-3-yl)-3-fluoro-5-trifluoromethylbenzamide] | 36.8% | 
CN(C)c1cccc2onc(NC(=O)c3ccc(Cl)c(Cl)c3)c12 [Example 170, 3,4-dichloro-N-(4-dimethylaminobenzo[d]isoxazol-3-yl)benzamide] | 38% | 
CN(C)c1cccc2onc(NC(=O)c3cccc([N+](=O)[O-])c3)c12 [Example 171, N-(4-dimethylaminobenzo[d]isoxazol-3-yl)-3-nitrobenzamide] | 42.3% | 
CN(C)c1cccc2onc(NC(=O)C34CC5CC(CC(C5)C3)C4)c12 [Example 172, adamantane-1-(4-dimethylaminobenzo[d]isoxazol-3-yl)carboxamide] |  | mGluR5 receptor inhibition of the 3[H]-MPEP binding in % (10 μM) (mGluR5 receptor): 51.40%
CN(C)c1cccc2onc(NC(=O)c3cc4ccccc4s3)c12 [Example 173, benzo[b]thiophene-2-(4-dimethylaminobenzo[d]isoxazol-3-yl)carboxamide] |  | mGluR5 receptor inhibition of the 3[H]-MPEP binding in % (10 μM) (mGluR5 receptor): 43.55%
Nc1c(F)c(F)c2c(NC(=O)c3c(F)cccc3F)noc2c1F [Example 176, N-(6-amino-4,5,7-trifluorobenzo[d]isoxazol-3-yl)-2,6-difluorobenzamide] | 36.1% | 
Nc1c(F)c(F)c2c(NC(=O)c3ccc(F)cc3F)noc2c1F [Example 177, N-(6-amino-4,5,7-trifluorobenzo[d]isoxazol-3-yl)-2,4-difluorobenzamide] | 30.8% | 
